Here are results for 26 compounds from patent publication US8008312B2, “CXCR4 antagonists for the treatment of HIV infection” (Emory University, priority 2005, dated 2011).

pIC50: −log10 of the molar value. Like-named read-outs stand apart in the source and are kept apart here. Where only a bound is given, the exact number is not on record here.

One series relates to HXB2. The experiment in a line: Phenoscreen viral entry inhibition assay, HXB2. It is filed as cell-based, HIV. The procedure:
(§1) A selected set of compounds were tested for their ability to inhibit the cellular entry of T-tropic HIV. The assay for this inhibition has been carried out on a contractural basis at Monogram Biosciences, Inc. using their well established Phenoscreen™ assay. Briefly, HIV strains of interest are tagged with a luciferase indicator gene to create an appropriate test vector. The test vector is amplified through transfection and the resulting virus is incubated in the presence of target host cells where intracellular florescence activity then becomes a measure of infection. Amplified virus is exposed to target host cells in the presence of a range of test drug concentrations to determine IC50 measurements of entry inhibition. A modification of this test has been further reapplied as a novel drug assay that has been used in partnership with a number of pharmaceutical companies to test the effectiveness of novel entry inhibitors that target specific chemokines. It can used to detect activity against T-tropic, M-tropic, and dual-tropic viruses and Monogram Biosciences has a large bank of over 10,000 different virus strains to ultimately asses the range of applicability of our CXCR4 antagonists. Certain compounds have been tested to establish efficacy in a number of viral strains.

The next series has as its system NL4-3. The series is described as follows: Phenoscreen viral entry inhibition assay, NL4-3. The series is classed as cell-based, HIV. The procedure:
as §1

The test system of a further series is Vrs-1. The experiment in a line: Phenoscreen viral entry inhibition assay, Vrs-1. The series is classed as cell-based, HIV. The procedure:
as §1

The next series relates to Vrs-2. The experiment in a line: Phenoscreen viral entry inhibition assay, Vrs-2. As to conditions: Human immunodeficiency virus 1, read-out: Viral Entry Inhibition Vrs-2. It is filed as cell-based, HIV. As for the experimental part:
as §1

The subject of a further series is Vrs-3. The series is described as follows: Phenoscreen viral entry inhibition assay, Vrs-3. It is filed as cell-based, HIV. As for the experimental part: as §1
The next series relates to Dual. The experiment in a line: Phenoscreen viral entry inhibition assay, Dual. The series is classed as cell-based, HIV. The following applies: Human immunodeficiency virus 1, read-out: Viral Entry Inhibition Dual. The procedure:
as §1

In a further series the test system is SHIV. The series is described as follows: Phenoscreen viral entry inhibition assay, SHIV. It is filed as cell-based. The procedure: as §1
For series [1], the target named is T1, CXCR4 (Homo sapiens, UniProt P61073). The experiment in a line: SDF-1 stimulated phosphorylation of Akt in MDA-MB-231 cells. As to conditions: 100 ng/ml SDF-1, 30 minutes; FIG. 2. The series is classed as cell-based. The procedure: FIG. 2 is an image of a western blot showing phosphorylation of Akt. Incubating MDA-MB-231 cells with 100 ng/ml of SDF-1 for 30 min stimulated phosphorylation of Akt. This activation was blocked with TN14003 or AMD3100 in a dose-dependent manner.
T1 sequence (P61073 whole entry): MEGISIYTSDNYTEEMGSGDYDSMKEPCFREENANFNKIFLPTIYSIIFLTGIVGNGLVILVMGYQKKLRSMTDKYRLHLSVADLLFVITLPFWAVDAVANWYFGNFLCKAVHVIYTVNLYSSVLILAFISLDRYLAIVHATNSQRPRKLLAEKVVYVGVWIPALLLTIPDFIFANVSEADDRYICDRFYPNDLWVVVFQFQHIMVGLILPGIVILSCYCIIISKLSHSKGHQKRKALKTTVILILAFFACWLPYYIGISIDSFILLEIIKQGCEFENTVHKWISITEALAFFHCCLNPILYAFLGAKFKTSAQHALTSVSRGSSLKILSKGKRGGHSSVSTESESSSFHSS
CXCR4/SDF-1 interaction activates PI3K/Akt and Ras/Raf/MEK/Erk pathways in a Gas protein (PTX-sensitive)-dependent manner. Experiments were conducted to determine the effect of blocking CXCR4/SDF-1 interaction by either TN14003 or AMD3100 at different concentrations (0, 0.01, 0.1, 1, 10, 100, 1000 nM) on phosphorylations of Akt and Erk1/2 signaling. Incubating cells with 100 ng/ml of SDF-1 for 30 minutes activated Akt. […] However, the increase in Erk1/2 phosphorylation by SDF-1 was not significant as the increase in Akt phosphorylation.

The target of series [2] is T1, CXCR4. The series is described as follows: SDF-1 stimulated Erk1/2 phosphorylation. The series is classed as cell-based. The following applies: SDF-1 stimulation; data not shown. The source says:
CXCR4/SDF-1 interaction activates PI3K/Akt and Ras/Raf/MEK/Erk pathways in a Gas protein (PTX-sensitive)-dependent manner.

The target of series [3] is T1, CXCR4. The series is described as follows: CXCR4 protein levels after treating cells. It is filed as cell-based.
The target in series [4] is T1, CXCR4. The experiment in a line: Competition screening using the native CXCR4 ligand SDF-1. The series is classed as binding. The following applies: competition with SDF-1.
The nature of a further series: Half-life in mice. As to conditions: mouse, in vivo, read-out: t1/2 (min) in mice.
For another series, the system named is MT-4 cells. The following applies: cited from earlier work.
[5] abbreviates: Human immunodeficiency virus 1, HXB2, read-out: Viral Entry Inhibition HXB2.
The mark [6] stands for this setting: Human immunodeficiency virus 1, NL43, read-out: Viral Entry Inhibition NL4-3.
Setting [7] is: Human immunodeficiency virus 1, read-out: Viral Entry Inhibition Vrs-1.
[8] abbreviates: Human immunodeficiency virus 1, read-out: Viral Entry Inhibition Vrs-3.

Take `C1=CC(CN2CCCNCCNCCCNCC2)CC=C1CN1CCCNCCNCCCNCC1` (stereo not drawn) [AMD3100, reference compound]: the pIC50 in the series on HXB2 (setting [5]) was 7.89; in the series with NL4-3 (setting [6]), 8.10; with Vrs-1 (setting [7]) it was 7.89; in the series with Vrs-2 it was 7.82; in the series with Vrs-3 (setting [8]), 7.37; in the series on Dual, 7.52. The compound also had a pIC50 in the series on SHIV of 7.89. Besides, the “concentration blocking Akt activation” value at CXCR4 [1] is on record as “a few nano molar”. The “concentration attenuating Erk1/2 phosphorylation” value on CXCR4 [2] came out at 100 nM. In addition, at CXCR4 [3], the “effect on CXCR4 protein levels” value is given as “did not affect CXCR4 protein levels”.

As for `c1cnc(NCc2ccc(CNc3ncccn3)cc2)nc1` [WZ-40-MS], the pIC50 is below 4.82 with HXB2 (setting [5]); below 4.82 with NL4-3 (setting [6]); below 4.82 in the series on Vrs-1 (setting [7]); around 5.00 in the series with Vrs-2; below 4.82 in the series with Vrs-3 (setting [8]); below 4.82 with Dual. Further, in the series on SHIV, the pIC50 was around 4.92.

Take `OCc1ccc(CNc2ncccn2)cc1` [WZ-41]: the pIC50 with HXB2 (setting [5]) is below 4.82; with NL4-3 (setting [6]), below 4.82; with Vrs-1 (setting [7]), below 4.82; in the series with Vrs-2, around 4.89; with Vrs-3 (setting [8]), below 4.82; with Dual it was below 4.82. In the series on SHIV, this compound gave a pIC50 of around 4.82.

For `c1ccc(NCc2cccc(CNc3ccccn3)c2)nc1` [WZ-48-S], the pIC50 in the series on HXB2 (setting [5]) was below 4.82; with NL4-3 (setting [6]), below 4.82; in the series on Vrs-1 (setting [7]), below 4.82; in the series on Vrs-2, around 4.96; in the series with Vrs-3 (setting [8]), below 4.82; in the series with Dual it was below 4.82. In addition, the pIC50 in the series with SHIV was around 4.96.

For `Fc1ccccc1NCc1ccc(CNc2ccccc2F)cc1` [WZ-51], the pIC50 was below 4.82 in the series with HXB2 (setting [5]); around 4.92 in the series on NL4-3 (setting [6]); around 5.00 in the series on Vrs-1 (setting [7]); around 5.00 in the series on Vrs-2; around 5.00 in the series on Vrs-3 (setting [8]); around 4.92 with Dual. In addition, the pIC50 in the series with SHIV was 5.85.

`c1ccc(NCc2ccc(CNc3ncccn3)cc2)cc1` [WZ-67]: the pIC50 with HXB2 (setting [5]) is below 4.82; in the series with NL4-3 (setting [6]), around 4.96; in the series on Vrs-1 (setting [7]), below 4.82; in the series with Vrs-2, around 4.96; in the series on Vrs-3 (setting [8]) it was around 4.92; in the series with Dual, below 4.82. In the series on SHIV, the pIC50 was around 5.00.

Regarding `COc1ccnc(NCc2ccc(CNc3nccc(OC)n3)cc2)n1` [WZ-72-S], the pIC50 in the series on HXB2 (setting [5]) was below 4.82; with NL4-3 (setting [6]) it was around 4.82; in the series on Vrs-1 (setting [7]) it was below 4.82; with Vrs-2, around 4.92; with Vrs-3 (setting [8]), below 4.82; in the series on Dual, below 4.82. Besides, the pIC50 in the series on SHIV is 5.35.

For `COc1cccc(NCc2ccc(CNc3cccc(OC)c3)cc2)c1` [WZ-77], the pIC50 in the series on HXB2 (setting [5]) was below 4.82; in the series with NL4-3 (setting [6]), around 4.85; in the series on Vrs-1 (setting [7]), below 4.82; in the series on Vrs-2, around 4.96; in the series on Vrs-3 (setting [8]), below 4.82; in the series on Dual it was below 4.82. In addition, in the series with SHIV, the pIC50 is 5.05.

With `c1ccc(NCc2cccc(CNc3ccccc3)c2)cc1` [WZ-814-S], the pIC50 in the series with HXB2 (setting [5]) was around 4.82; in the series with NL4-3 (setting [6]), around 4.96; with Vrs-1 (setting [7]), around 4.96; with Vrs-2 it was around 4.96; in the series with Vrs-3 (setting [8]) it was around 4.96; with Dual, below 4.82. This compound had a pIC50 in the series on SHIV below 4.82.

For the compound `c1ccc(CNCc2ccc(CNCc3ccccc3)cc2)cc1` [WZ-8224], the pIC50 was 5.09 with HXB2 (setting [5]); 5.20 in the series on NL4-3 (setting [6]); 5.32 in the series with Vrs-1 (setting [7]); 5.37 with Vrs-2; 5.24 with Vrs-3 (setting [8]); 5.20 in the series with Dual. In the series on SHIV, this compound had a pIC50 of 5.77.

As for `CC(Nc1ccccc1)c1ccc(C(C)Nc2ccccc2)cc1` (stereo not drawn) [WZ-8225], the pIC50 with HXB2 (setting [5]) is around 4.96; in the series with NL4-3 (setting [6]), around 5.00; in the series on Vrs-1 (setting [7]) it was around 4.96; in the series with Vrs-2 it was around 5.00; in the series on Vrs-3 (setting [8]), around 5.00; with Dual it was below 4.82. Besides, in the series on SHIV, the pIC50 was around 5.00.

For `Cc1cc(CNc2ccccc2)c(C)cc1CNc1ccccc1` [WZ-9103], the pIC50 with HXB2 (setting [5]) was around 4.89; in the series with NL4-3 (setting [6]), around 4.96; with Vrs-1 (setting [7]), below 4.82; in the series with Vrs-2, around 4.82; with Vrs-3 (setting [8]), around 4.82; in the series with Dual, below 4.82. Moreover, in the series with SHIV, the pIC50 was 5.02.

Turning to `c1ccc(NCc2ccc(CNc3ccccc3)cc2)cc1` [WZ-81810], the pIC50 in the series on HXB2 (setting [5]) is below 4.82; with NL4-3 (setting [6]), below 4.82; in the series with Vrs-1 (setting [7]) it was below 4.82; in the series with Vrs-2, around 5.00; in the series with Vrs-3 (setting [8]), below 4.82; in the series with Dual, below 4.82. For the same compound, the pIC50 in the series with SHIV is around 4.92.

Broadly, the IC50 is the concentration needed to halve the response being measured. At CXCR4 [4], `c1ccc(NCc2ccc(CNc3ccccn3)cc2)nc1` [drawing 204] registered an IC50 below 10 nM.

`c1cnc(NCc2ccc(CNc3ncccn3)cc2)nc1` [drawing 205]: the IC50 at CXCR4 [4] was below 10 nM. Besides, the half-life in “Half-life in mice” is 45 min.

With `OCc1ccc(CNc2ncccn2)cc1` [drawing 206], the half-maximal inhibitory concentration (IC50) on CXCR4 [4] was below 10 nM.

`c1ccc(NCc2ccc(CNc3ccccc3)cc2)cc1` [drawing 208] yielded an IC50 on CXCR4 [4] below 10 nM. The half-life in “Half-life in mice” amounted to 11 min.

`c1ccc(NCc2cccc(CNc3ccccc3)c2)cc1` [drawing 209]: the IC50 at CXCR4 [4] was below 10 nM. Also, the half-life in “Half-life in mice” is below 5 min.

Turning to `c1ccc(CNCc2ccc(CNCc3ccccc3)cc2)cc1` [drawing 210], the IC50 on CXCR4 [4] is below 100 nM.

For the compound `CC(Nc1ccccc1)c1ccc(C(C)Nc2ccccc2)cc1` (stereo not drawn) [drawing 211], at CXCR4 [4], the half-inhibitory concentration (IC50) was below 100 nM. In addition, the half-life in “Half-life in mice” came to 13.7 min.

At CXCR4 [4], `Cc1cc(CNc2ccccc2)c(C)cc1CNc1ccccc1` [drawing 212] had a half-inhibitory concentration (IC50) above 100 nM.

For the compound `Fc1ccccc1NCc1ccc(CNc2ccccc2F)cc1` [drawing 213], the IC50 on CXCR4 [4] was below 10 nM.

With `c1ccc(NCc2ccc(CNc3ncccn3)cc2)cc1` [drawing 214], the half-life in the series “Half-life in mice” was 14 min.

As to `COc1ccnc(NCc2ccc(CNc3nccc(OC)n3)cc2)n1` [drawing 215], at CXCR4 [4], the IC50 was found to be 10 nM.

The compound `COc1cccc(NCc2ccc(CNc3cccc(OC)c3)cc2)c1` [drawing 216] had a concentration for half-maximal inhibition (IC50) on CXCR4 [4] of 1 nM. Besides, the half-life in the series “Half-life in mice” is 14.3 min.

As to TN14003 [reference compound], the pIC50 in the series with HXB2 (HXB2 strain, read-out: Viral Entry Inhibition HXB2) was 8.00; in the series on NL4-3 (NL4-3 strain, read-out: Viral Entry Inhibition NL4-3), 8.30; in the series with Vrs-1 (Vrs-1 strain, read-out: Viral Entry Inhibition Vrs-1), 8.00; in the series with Vrs-3 (Vrs-3 strain, read-out: Viral Entry Inhibition Vrs-3) it was 7.60; in the series on SHIV (SHIV) it was 8.15. Further, the “concentration blocking Akt activation” value at CXCR4 [1] was “sub-nano molar concentration”. Besides, on CXCR4 [2], the “concentration attenuating Erk1/2 phosphorylation” value is recorded as “sub-nano molar concentration”. In addition, the “effect on CXCR4 protein levels” value at CXCR4 [3] was “did not affect CXCR4 protein levels”. Further, the “concentration leading to 50% toxicity” value with MT-4 cells was 410 µM.
